The results in this text go back to US20220218778A1, “COMPOSITION FOR REDUCING BODY FAT COMPRISING GREEN TEA EXTRACT CONTAINING GALLOCATECHIN GALLATE AS AN ACTIVE INGREDIENT AND MANUFACTURING METHOD THEREOF” (AMOREPACIFIC CORPORATION, priority 2021, published 2022).

What all share (assay type): cell-based, Mouse
In assay [1] the test system is 3T3-L1 adipocytes. Kind of assay: Triglyceride degradation in adipocytes (glycerol quantification). The following applies: FIG. 9; HTGT 10, 50 or 100 μg/mL, IBMX 500 μM; 4 hours.
Assay [2] relates to brown adipocyte-associated markers (Ucp1, Cidea, Cox8b, Dio2, Elovl3, Pgc1a, Prdm16). Kind of assay: Brown adipocyte-associated marker gene expression (qPCR) in adipocytes. The settings on record: FIG. 14; GCG 0.1, 1, 5, 10 or 20 μM; 24 hours.
From the text: After extracting RNA using Trizol™ reagent (Thermo Fisher Scientific), cDNA was synthesized using a RevertAid™ 1st strand cDNA synthesis kit (Thermo Fisher Scientific). Then, the expression level of target genes was quantified by CFX96 real-time quantitative PCR (qPCR; Bio-Rad) using a housekeeping gene (cyclophilin).
The subject of assay [3] is 3T3-L1 adipocytes. Kind of assay: Oxygen consumption rate (XF analyzer) in adipocytes. The settings on record: FIG. 18; 20 μM GCG, 24 hours; with oligomycin, FCCP, rotenone/antimycin A; normalized to protein. As for the experimental part: Mouse-derived 3T3-L1 adipocytes (American Type Culture Collection, ATCC) were cultured in an incubator using DMEM (Dulbecco's modified Eagle's medium; Sigma-Aldrich) containing 10% bovine calf serum (BCS; HyClone) and 1% penicillin/streptomycin (P/S; Sigma-Aldrich) under a standard condition (37° C., 5% CO2). For cellular differentiation, 48 hours after the cells were filled 100% on a plate, they were cultured again for 48 hours after replacing the medium with DMEM supplemented with 10% fetal bovine serum (FBS; Hyclone), 1% P/S, 0.5 mM 3-isobutyl-1-methylxanthine (IBMX; Sigma-Aldrich), 1 μM dexamethasone (Sigma-Aldrich) and 5 μg/mL insulin (Sigma-Aldrich). Then, differentiation of adipocytes was induced by culturing the cells additionally for 10 days while replacing the medium with a medium supplemented with 10% FBS, 5 μg/mL insulin and 1% P/S at two-day intervals.
The adipocytes differentiated as in Reference Example 1 were treated with 20 μM gallocatechin gallate (GCG), which is contained in large quantities particularly in the heat-transformed green tea extract (HTGT) (Table 2), for 24 hours. A negative control group was treated with a vehicle (distilled water).
Then, oxygen level and oxygen consumption rate (OCR) were measured using an XF analyzer (Agilent, Santa Clara, Calif., USA). […]

Consider `CC(C)Cn1c(=O)n(C)c(=O)c2[nH]cnc21` [IBMX, 3-isobutyl-1-methylxanthine], for which the “degradation of triglycerides in adipocytes (glycerol produced)” value in the assay on 3T3-L1 adipocytes [1] is given as “facilitating the degradation of triglycerides in adipocytes”.
Consider `O=C(O[C@@H]1Cc2c(O)cc(O)cc2O[C@H]1c1cc(O)c(O)c(O)c1)c1cc(O)c(O)c(O)c1` [GCG, gallocatechin gallate], for which, in assay [2], the “expression of Elovl3” value was “increased the expression of the fat degradation-associated Elovl3”, the “expression of Prdm16” value is “not changed significantly” and the “expression of uncoupling protein 1 (Ucp1)” value is “increased the expression”. The “oxygen consumption rate (OCR)” value in the assay with 3T3-L1 adipocytes [3] is “increased OCR”.
